Laboratory results reported in PubChem BioAssay (NCI).
“And” between values parts separate entries of the source, which are not always exact repeats. Identical values can stand only once.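 96-well plates; 48 h exposure; 5 concentrations. Endpoints by linear interpolation between flanking doses. Not reached: highest tested concentration assigned. Abbreviation: GI50, concentration required for 50% inhibition of growth. TGI is the concentration that stops growth completely.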

What was measured:
Test in all cases: NCI tumour cell line growth inhibition, 48 h
OVCAR-8 ovarian = tested on: OVCAR-8 ovarian
HCT-116 colon = tested on: HCT-116 colon
SK-MEL-5 melanoma = tested on: SK-MEL-5 melanoma
CCRF-CEM leukemia = tested on: CCRF-CEM leukemia
LOX IMVI melanoma = tested on: LOX IMVI melanoma
M14 melanoma = tested on: M14 melanoma
CAKI-1 renal = tested on: CAKI-1 renal
786-0 renal = tested on: 786-0 renal
SF-539 CNS = tested on: SF-539 CNS

| Compound | GI50 (OVCAR-8 ovarian) | TGI (OVCAR-8 ovarian) | GI50 (HCT-116 colon) | TGI (HCT-116 colon) | GI50 (SK-MEL-5 melanoma) | TGI (SK-MEL-5 melanoma) | GI50 (CCRF-CEM leukemia) | TGI (CCRF-CEM leukemia) | GI50 (LOX IMVI melanoma) | TGI (LOX IMVI melanoma) | GI50 (M14 melanoma) | TGI (M14 melanoma) | GI50 (CAKI-1 renal) | TGI (CAKI-1 renal) | GI50 (786-0 renal) | TGI (786-0 renal) | GI50 (SF-539 CNS) | TGI (SF-539 CNS) |
| --- | --- | --- | --- | --- | --- | --- | --- | --- | --- | --- | --- | --- | --- | --- | --- | --- | --- | --- |
| O=C1C(=O)c2cccnc2-c2ncccc21 | 166 nM | 0.727 µM | 40.1 nM | 0.159 µM | 239 nM | 0.801 µM | 79.7 nM | 0.618 µM | 60 nM | 0.36 µM | 159 nM | 0.441 µM | 605 nM | 1.92 µM | 1220 nM | 2.5 µM | 184 nM | 0.502 µM |
| O=C1C(Cl)=C(NCc2ccco2)C(=O)c2ccccc21 | 22500 nM | > 100 µM | 7090 nM | 49.5 µM | 1620 nM | 3.11 µM | 9880 nM | > 100 µM | 7100 nM | 72.7 µM | 4310 nM | 12.1 µM | 58100 nM | > 100 µM | 29000 nM | 72.3 µM | 20900 nM | 54 µM |
| Cn1cc(C(=O)C[n+]2ccccc2)c2ccccc21 |  | > 100 µM |  | > 100 µM |  | > 100 µM |  | > 100 µM |  | > 100 µM |  | > 100 µM |  | > 100 µM |  | > 100 µM |  | > 100 µM |
| CN(C)CC/[N+]([O-])=C(/c1ccccc1)C12CC3CC(CC(C3)C1)C2 |  | 31.7 µM |  | 32 µM |  | 32 µM |  | 34.3 µM |  | 31.2 µM |  | 26.8 µM |  | 31.5 µM |  | 26.8 µM |  | 30.8 µM |
| C=C1CC2(OC1=O)C(=O)Nc1ccccc12 (configuration not stated) | 2910 nM | 11 µM | 3160 nM | 10.5 µM | 6130 nM | 18.8 µM | 2110 nM | 7.15 µM | 1560 nM | 3.03 µM | 2710 nM | 10 µM | 1290 nM | 2.65 µM | 2390 nM | 6.64 µM | 1880 nM | 3.81 µM |
| OCC#Cc1ccccc1C#CCCCCCC#Cc1ccccc1C#CCO | 17100 nM | 42.1 µM | 12700 nM | 25.2 µM | 18900 nM | 33.1 µM | 22900 nM | 49.6 µM | 19300 nM | 34.8 µM | 15400 nM | 29.2 µM | 19300 nM | 43.8 µM | 16800 nM | 32.3 µM | 20000 nM | 36.3 µM |
| CSc1nc(SC)c2c(CO)c(Br)n(Cc3ccccc3)c2n1 |  | 44.1 µM |  | > 100 µM |  | > 100 µM |  | > 100 µM |  | > 100 µM |  | > 100 µM |  | 23.6 µM |  | 37.6 µM |  | 29.1 µM |
| O=C1c2ccccc2S(=O)(=O)c2cc(-c3nn[nH]n3)ccc21 |  | > 100 µM |  | > 100 µM |  | > 100 µM |  | > 100 µM |  | > 100 µM |  | > 100 µM |  | > 100 µM |  | > 100 µM |  | > 100 µM |
| Cc1cc(C)c(-n2c(-c3ccc(Br)cc3)cs/c2=N\N=C2C=C(C(C)(C)C)C(=O)C(C(C)(C)C)=C2)c(C)c1 |  | > 100 µM |  | > 100 µM |  | > 100 µM |  | > 100 µM |  | > 100 µM |  | > 100 µM |  | > 100 µM |  | > 100 µM |  | > 100 µM |
| C=C1C(=O)O[C@H]2[C@H]1CC/C(Cn1cc(-c3ccccc3C(F)(F)F)nn1)=C\CC[C@@]1(C)O[C@@H]21 | 2230 nM | 6.97 µM | 1260 nM | 2.74 µM | 1720 nM | 3.44 µM | 767 nM | 10.1 µM | 1110 nM | 2.35 µM | 2150 nM | 5.13 µM | 1310 nM | 2.63 µM | 1840 nM | 3.92 µM | 1760 nM | 3.56 µM |
| CCCCCCCc1cc2c3c(nc4ccccc42)C(=O)c2cccnc2-c3n1 | 5410 nM | 16.6 µM | 375 nM | 3.35 µM | 4160 nM | 8.37 µM | 1620 nM | 7.66 µM | 2190 nM | 7.29 µM | 2500 nM | 6.9 µM | 4600 nM | 9.51 µM | 5100 nM | 10.5 µM | 18800 nM | 34.8 µM |
| CCOC(=O)c1c2c(n3ccccc13)C(=O)c1ncccc1C2=O | 58.1 nM | 6 µM | 42.4 nM | 2.33 µM | 142 nM | 1.51 µM | 3060 nM | > 100 µM | 41.3 nM | 1.78 µM | 35.4 nM | 2.94 µM | 301 nM | 28.5 µM | 180 nM | 13.8 µM | 111 nM | 1.96 µM |
| O=C1C(=Cc2c(O)cc(O)cc2O)C(=O)c2ccccc21 |  | > 59.7 µM |  | > 53.7 µM |  | > 100 µM |  | > 73.1 µM |  | 29.2 µM |  | > 57.2 µM |  | > 65.5 µM |  | > 56.4 µM |  | > 58.5 µM |
| CN1C(=O)C2C(C1=O)C1(O)c3ccccc3C2(N)c2ccccc21 (configuration not stated) |  | > 100 µM |  | > 100 µM |  | > 100 µM |  | > 100 µM |  | > 100 µM |  | > 100 µM |  | > 100 µM |  | > 100 µM |  | > 100 µM |
| COc1ccc2c(c1)C(=O)c1c-2n(CCCI)c(=O)c2cc([N+](=O)[O-])ccc12 | 266 nM and 338 nM | 50 µM and > 100 µM | 72.1 nM and 45.3 nM | 1.02 µM and 1.94 µM | 109 nM and 124 nM | 0.438 µM and 0.468 µM | 25.4 nM and 15.3 nM |  | 74.3 nM and 43.2 nM | 0.763 µM and 1.01 µM | 133 nM and 57 nM | 0.59 µM and 1.35 µM | 472 nM and 309 nM | 48.6 µM and 6.86 µM | 106 nM and 52.2 nM |  | 96.2 nM and 57.7 nM | 0.338 µM and 0.376 µM |
| CCCSS[C@H]1NC(=O)[C@H]1NC(=O)COc1ccccc1 |  | 27.6 µM |  | 22 µM |  | 54.9 µM |  | 19.1 µM |  | 30.2 µM |  | 24.4 µM |  | 43.6 µM |  | 31.5 µM |  | 29.5 µM |
| Cc1cn(-c2cc(NC(=O)c3ccc(C)c(Nc4nccc(-c5cccnc5)n4)c3)cc(C(F)(F)F)c2)cn1 | 4430 nM and 4290 nM | > 10 µM and 24.8 µM | 4260 nM and 2060 nM | > 10 µM and 7.79 µM | 1730 nM | 7.01 µM | > 10000 nM and 1250 nM | > 32.3 µM | 2770 nM and 5570 nM | > 10 µM and 26.5 µM | 1660 nM and 1450 nM | 5.91 µM and 4.87 µM | > 10000 nM and 7370 nM | > 10 µM and 14.3 µM | > 10000 nM and 2240 nM | > 10 µM and 7.1 µM | > 10000 nM and 15400 nM | > 10 µM and 31.9 µM |
